Values quoted from earlier work as cited in patent publication US20230149377A1, “PHARMACEUTICAL METHODS” (ELEVAR THERAPEUTICS, INC., priority 2018, published 2023).
Counter-ions that a name gives are not always drawn.

Assays:
[1] = observed safety issues, approved drugs
[2] = Phase 1, 46 patients
[3] = single dose
gastric cancer = settings: Phase 3
VEGFR-2 = VEGFR-2 (Homo sapiens, UniProt P35968); settings: nonclinical
[4] = system: tumor bearing animal models
[5] = 81 mg rivoceranib dose (100 mg mesylate), healthy volunteers

Sequence of VEGFR-2 (P35968 20-1356, species assumed): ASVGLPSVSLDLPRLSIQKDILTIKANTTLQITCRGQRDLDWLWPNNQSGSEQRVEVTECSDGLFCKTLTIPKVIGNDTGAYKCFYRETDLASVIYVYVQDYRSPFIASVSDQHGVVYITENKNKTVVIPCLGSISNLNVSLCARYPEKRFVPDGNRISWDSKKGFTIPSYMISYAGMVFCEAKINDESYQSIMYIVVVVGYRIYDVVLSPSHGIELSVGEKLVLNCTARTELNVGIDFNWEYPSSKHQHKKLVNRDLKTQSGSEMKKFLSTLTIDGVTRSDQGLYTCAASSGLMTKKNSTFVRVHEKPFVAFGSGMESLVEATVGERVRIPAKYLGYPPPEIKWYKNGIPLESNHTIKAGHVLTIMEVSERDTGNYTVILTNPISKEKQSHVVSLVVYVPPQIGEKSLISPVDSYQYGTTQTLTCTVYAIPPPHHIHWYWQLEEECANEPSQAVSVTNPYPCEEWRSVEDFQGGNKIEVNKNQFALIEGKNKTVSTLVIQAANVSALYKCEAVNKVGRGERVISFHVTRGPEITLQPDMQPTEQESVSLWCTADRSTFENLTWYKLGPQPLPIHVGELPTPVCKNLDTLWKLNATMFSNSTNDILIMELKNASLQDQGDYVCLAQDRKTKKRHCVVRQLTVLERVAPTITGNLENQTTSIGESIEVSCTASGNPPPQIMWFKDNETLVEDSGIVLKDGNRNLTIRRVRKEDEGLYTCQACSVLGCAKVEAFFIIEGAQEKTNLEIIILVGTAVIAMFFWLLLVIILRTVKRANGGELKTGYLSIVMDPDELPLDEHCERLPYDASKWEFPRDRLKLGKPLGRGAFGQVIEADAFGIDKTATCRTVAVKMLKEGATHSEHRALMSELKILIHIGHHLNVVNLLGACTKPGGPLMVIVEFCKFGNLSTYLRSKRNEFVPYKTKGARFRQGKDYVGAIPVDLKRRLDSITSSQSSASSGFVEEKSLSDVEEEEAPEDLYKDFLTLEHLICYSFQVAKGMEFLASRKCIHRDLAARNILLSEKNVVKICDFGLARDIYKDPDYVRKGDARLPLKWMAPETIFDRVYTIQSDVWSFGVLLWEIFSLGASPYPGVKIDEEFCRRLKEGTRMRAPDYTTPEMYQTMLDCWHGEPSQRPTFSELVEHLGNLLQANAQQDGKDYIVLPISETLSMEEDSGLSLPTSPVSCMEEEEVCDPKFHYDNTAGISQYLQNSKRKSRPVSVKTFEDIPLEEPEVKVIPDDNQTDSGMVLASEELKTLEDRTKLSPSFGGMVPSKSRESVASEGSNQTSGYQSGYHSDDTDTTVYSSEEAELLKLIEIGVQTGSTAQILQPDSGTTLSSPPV

## Cc1nc(Nc2ncc(C(=O)Nc3c(C)cccc3Cl)s2)cc(N2CCN(CCO)CC2)n1 [Dasatinib]
[1]
  Safety Profile: Central nervous system: R
  Safety Profile: Liver/Bile: R
  Safety Profile: Musculoskeletal/bone: R
  Safety Profile: Renal: R

## C#Cc1cccc(Nc2ncnc3cc(OCCOC)c(OCCOC)cc23)c1 [Erlotinib]
[1]
  Safety Profile: Blood/lymph system: R
  Safety Profile: Central nervous system: R
  Safety Profile: Liver/Bile: R

## CS(=O)(=O)CCNCc1ccc(-c2ccc3ncnc(Nc4ccc(OCc5cccc(F)c5)c(Cl)c4)c3c2)o1 [Lapatinib]
[1]
  Safety Profile: Central nervous system: R
  Safety Profile: Heart: R

## Cc1cn(-c2cc(NC(=O)c3ccc(C)c(Nc4nccc(-c5cccnc5)n4)c3)cc(C(F)(F)F)c2)cn1 [Nilotinib]
[1]
  Safety Profile: Central nervous system: R
  Safety Profile: GI: R
  Safety Profile: Musculoskeletal/bone: R
  Safety Profile: Renal: R
  Safety Profile: Vascular: R

## Cc1ccc(Nc2nccc(N(C)c3ccc4c(C)n(C)nc4c3)n2)cc1S(N)(=O)=O [Pazopanib]
[1]
  Safety Profile: Heart: R

## CNC(=O)c1cc(Oc2ccc(NC(=O)Nc3ccc(Cl)c(C(F)(F)F)c3)cc2)ccn1 [Sorafenib]
[1]
  Safety Profile: Central nervous system: R
  Safety Profile: GI: R
  Safety Profile: Heart: R
  Safety Profile: Liver/Bile: R
  Safety Profile: Lung airways: R
  Safety Profile: Musculoskeletal/bone: R
  Safety Profile: Renal: R

## CCN(CC)CCNC(=O)c1c(C)[nH]c(/C=C2\C(=O)Nc3ccc(F)cc32)c1C [Sunitinib]
[1]
  Safety Profile: Central nervous system: R
  Safety Profile: Heart: R
  Safety Profile: Liver/Bile: R

## N#CC1(c2ccc(NC(=O)c3cccnc3NCc3ccncc3)cc2)CCCC1 [rivoceranib mesylate]
[2]
  maximum tolerated dose: 850 mg
[3]; healthy male
  AUC0-∞ in Chinese and Japanese subjects compared to Caucasian subjects: slightly higher
  Cmax in Chinese and Japanese subjects compared to Caucasian subjects: slightly higher
[3]; similar amongst Caucasian, Japanese and Chinese groups
  t1/2: 7.5 to 8 h

## N#CC1(c2ccc(NC(=O)c3cccnc3NCc3ccncc3)cc2)CCCC1 [rivoceranib, N-[4-(1-cyanocyclopentyl)phenyl]-2-{[(pyridin-4-yl)methyl]amino} pyridine-3-carboxamide]
Gastric cancer
  Grade 3/4 adverse reactions that occurred in more than 2% of patients: hypertension, HFS, proteinuria, fatigue, anorexia, and elevated aminotransferase
  median overall survival (OS) compared to placebo: prolonged
  median progression-free survival (PFS) compared to placebo: prolonged
VEGFR-2
  binding to VEGFR-2: selectively binds
[4]; at efficacious doses
  side effects in animals: minimal side effects
[4]; nonclinical
  efficacy in various tumor bearing animal models: efficacious
[5]
  Food effects on the bioavailability: minimal
